Reference: publication PMC6733504, “Effects of flavoring compounds used in electronic cigarette refill liquids on endothelial and vascular function” (PLoS ONE, 2019)
Where two headings read alike, the source gives them in different places.

Experiments:
[1] = molecular target: T1, soluble guanylate cyclase (sGC) (Bos taurus, UniProt P16068+P19687); test: Activity of purified sGC stimulated with DEA/NO; format: biochemical, bovine; details: for Emax of DEA/NO-stimulated sGC activity in presence of flavoring: flavoring 1 mM, DEA/NO 0.01–10 μM
T1 construct: The activity of sGC purified from bovine lung; from tissue; host or cells: bovine lung
T1 sequence (P19687 1-691): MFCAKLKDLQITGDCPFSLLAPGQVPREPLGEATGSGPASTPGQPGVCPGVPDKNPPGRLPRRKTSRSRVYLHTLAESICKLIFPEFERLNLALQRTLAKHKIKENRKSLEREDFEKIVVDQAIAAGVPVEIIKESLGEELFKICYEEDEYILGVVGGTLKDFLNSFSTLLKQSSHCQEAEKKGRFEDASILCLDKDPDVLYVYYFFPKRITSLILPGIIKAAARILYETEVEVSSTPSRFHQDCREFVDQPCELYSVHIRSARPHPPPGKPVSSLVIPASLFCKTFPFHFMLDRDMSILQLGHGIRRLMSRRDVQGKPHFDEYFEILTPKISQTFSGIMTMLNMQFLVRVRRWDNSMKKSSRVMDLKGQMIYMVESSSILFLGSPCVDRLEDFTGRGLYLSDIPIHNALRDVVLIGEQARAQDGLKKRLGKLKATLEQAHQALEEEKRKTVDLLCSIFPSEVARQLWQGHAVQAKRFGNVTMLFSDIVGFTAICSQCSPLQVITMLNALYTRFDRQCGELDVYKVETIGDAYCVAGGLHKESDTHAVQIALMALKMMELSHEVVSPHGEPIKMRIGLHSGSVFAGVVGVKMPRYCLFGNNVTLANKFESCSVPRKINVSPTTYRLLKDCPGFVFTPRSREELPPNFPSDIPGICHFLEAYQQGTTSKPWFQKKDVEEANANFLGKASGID
T1 sequence (P16068 1-619): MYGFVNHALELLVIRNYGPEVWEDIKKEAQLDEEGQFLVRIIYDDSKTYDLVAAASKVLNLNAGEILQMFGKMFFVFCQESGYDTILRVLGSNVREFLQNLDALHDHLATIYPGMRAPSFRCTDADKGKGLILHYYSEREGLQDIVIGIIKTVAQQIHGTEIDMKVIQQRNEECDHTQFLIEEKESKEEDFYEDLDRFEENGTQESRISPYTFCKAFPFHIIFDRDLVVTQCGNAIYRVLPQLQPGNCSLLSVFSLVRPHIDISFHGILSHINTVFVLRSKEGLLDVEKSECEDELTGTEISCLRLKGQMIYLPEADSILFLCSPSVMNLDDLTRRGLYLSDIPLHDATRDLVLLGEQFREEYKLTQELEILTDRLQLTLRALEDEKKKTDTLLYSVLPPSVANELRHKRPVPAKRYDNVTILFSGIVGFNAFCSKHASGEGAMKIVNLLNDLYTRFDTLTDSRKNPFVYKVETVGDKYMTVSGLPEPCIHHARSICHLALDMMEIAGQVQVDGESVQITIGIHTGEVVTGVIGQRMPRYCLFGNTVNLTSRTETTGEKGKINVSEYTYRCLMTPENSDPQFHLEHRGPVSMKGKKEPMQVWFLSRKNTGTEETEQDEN
Method: The activity of sGC purified from bovine lung was determined as formation of [^32P]cGMP from [α-^32P]GTP. The purified enzyme (50 ng) was incubated at 37°C for 10 min in a final volume of 0.1 ml in the absence or presence of flavorings with the NO donor DEA/NO at concentrations indicated in the figure legends, followed by isolation of [^32P]cGMP and quantification of radioactivity (Cerenkov radiation) in a β counter.
To test for reversibility of inhibition, sGC (50 ng) was preincubated in the absence or presence of the respective compounds for 5 minutes at 37°C, followed by 50-fold dilution in the assay mixtures and incubation with DEA/NO at 37°C for 10 minutes.

endothelial cells [2] = test: MTT to formazan conversion (viability); format: cell-based, porcine; details: 1 mM, 60 minutes
Method: The viability of endothelial cells was judged by incubation with 1 mM of the flavoring compounds, followed by determination of 3-(4,5-dimethyl-2-thiazolyl)-2,5-diphenyltetrazolium bromide (MTT) to formazan conversion using the Cayman MTT Cell Proliferation Assay Kit purchased through VWR International (Vienna, Austria).

rat aortic rings = test: Effect of flavorings on vascular tone of U-46619 precontracted aortic rings; details: 95% CI
Method: Unsexed Sprague-Dawley rats (obtained from Charles River, Sulzfeld, Germany) were housed at the local animal facility in approved cages. […] Animals were euthanized in a box that was gradually filled with CO2 until vital signs had ceased (cessation of respiration and circulation). Subsequently, the thorax of the animals was opened, the thoracic aorta was removed, cleaned from connective tissue and immediately used for assessment of vessel function.
After equilibration for 60 min at the optimal resting tension of 20 mN, maximal contractile activity was determined with a depolarizing solution containing 60 mM K^+. […] When contraction had reached a stable plateau (~after 20 min) cumulative concentration-response curves were established with flavorings. Where indicated, the effects of the flavorings on vascular tone were tested in the presence of the NOS inhibitor N^G-nitro-L-arginine methyl ester (L-NAME, 0.2 mM).
Concentration-response curves of different ring segments from a single animal were averaged and counted as an individual experiment.

endothelial cells [3] = test: LDH release (membrane integrity); details: 1 mM, 60 minutes; maximum = 1% Triton
Method: To test for membrane integrity, endothelial cells were assayed for release of lactate dehydrogenase (LDH) into the culture medium. Subsequent to incubation with flavoring compounds (1 mM each) for 1 hour, 20-μl aliquots of the culture media were mixed with 200 μl of reagent buffer (1 mM pyruvate and 0.1 mM NAD^+ in PBS). The decrease in light absorbance at 340 nm was monitored using a diode array spectrophotometer (Hewlett Packard 8452A). Maximum LDH release was determined by treating the cells with 1% Triton X-100.

[4] = system: Porcine aortic endothelial cells (endothelial sGC); test: DEA/NO-induced endothelial cGMP formation; format: cell-based; details: for DEA/NO-stimulated endothelial cGMP formation: 1 mM
Method: Porcine aortic endothelial cells were isolated as described and cultured at 37°C, 5% CO2 for up to 3 passages in Dulbecco´s modified Eagle´s medium, containing 10% heat-inactivated fetal calf serum (FCS), 100 U/ml penicillin, 0.1 mg/ml streptomycin, and 1.25 μg/ml amphotericin B. Prior to experiments, cells were subcultured into 24-well plates (determination of cGMP formation) or 6-well plates (determination of L-citrulline formation).
Accumulation of intracellular 3',5'-cyclic GMP (cGMP) was determined as previously described. […] Reactions were started by addition of the Ca^2+ ionophore A 23187 (final concentration 1 μM) or the NO donor DEA/NO (final concentration 1 μM) and terminated after 4 minutes by removal of the incubation medium and addition of 0.01 M HCl. Within 1 h, intracellular cGMP was completely released into the supernatant and measured by radioimmunoassay.

[5] = Estimated plasma concentration upon inhalation of cinnamaldehyde-containing aerosol; set-up: species or system human; details: 10 ml of 6.9 mM liquid, plasma volume 3 liters, 100% bioavailability, no distribution, metabolism or clearance
[6] = rats, cited from earlier work
[7] = Rattus norvegicus, absence of L-NAME, read-out: EC50 of relaxation of pre-contracted vessels (Control)
[8] = Rattus norvegicus, presence of L-NAME 0.2 mM, read-out: EC50 of relaxation of pre-contracted vessels (L-NAME)

SMILES: C=CCc1ccc(O)c(OC)c1 [Eugenol, 2-Methoxy-4-(prop-2-en-1-yl)phenol]
- Emax of DEA/NO-stimulated sGC activity in presence of flavoring [1]: 28±1.1 µmol cGMP x min-1 x mg-1
- Formazan formation (% of control) (endothelial cells [2]): 107±4.6 % of control
- EC50 (rat aortic rings; [7]): ~500 µM
- EC50 (rat aortic rings; [8]): 500 µM
- EC50 (rat aortic rings; absence of L-NAME, read-out: EC50 of relaxation of pre-contracted vessels (Control)): 400 µM
- LDH release (% of maximum) (endothelial cells [3]): 0.4±0.23 % of maximum

SMILES: O=C/C=C/c1ccccc1 [Cinnamaldehyde, (2E)-3-Phenylprop-2-enal]
- DEA/NO-stimulated endothelial cGMP formation ([4]; incubation for 15 minutes (Fig 2B)): 25.3±3.9 % of controls
- DEA/NO-stimulated endothelial cGMP formation ([4]; incubation for 75 minutes (Fig 2B)): 10.4±2.4 % of controls
- DEA/NO-induced cGMP formation ([4]; flavoring 1 mM, 15 min preincubation, 1 μM DEA/NO for 4 min (Fig 1B)): about 35 % of controls
- IC50 ([1]; DEA/NO 0.05 μM, 95% CI): 560 µM
- Reversal of sGC inhibition by 50-fold dilution ([1]; enzyme pre-incubated 5 minutes with 1 mM): largely
- Emax of DEA/NO-stimulated sGC activity in presence of flavoring [1]: 24±0.8 µmol cGMP x min-1 x mg-1
- Formazan formation (% of control) (endothelial cells [2]): 91±2.6 % of control
- EC50 (rat aortic rings; [7]): ~500 µM
- EC50 (rat aortic rings; [8]): 600 µM
- Estimated plasma concentration [5]: 23 µM
- Maximal plasma concentration ([6]; intravenous bolus 25 mg/kg): 20 µM
- Maximal plasma concentration ([6]; oral 500 mg/kg): about 2 μM
